According to PubChem BioAssay (NCI):
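Five compound concentrations were applied to cells in 96-well plates for 48 hours; endpoints were derived by simple linear interpolation of the resulting dose-response curve. GI50: concentration for 50% inhibition of growth. TGI: total growth inhibition.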

Test system: TK-10 renal
Assay: NCI-60 cell line screen, 48 h

| Compound | GI50 [µM] | TGI [µM] |
| --- | --- | --- |
| CC(=O)Oc1ccccc1C(=O)N=C1[Se]CCCN1C(=O)c1ccccc1OC(C)=O | 1.87 | 3.81 |
| CC(=O)c1c(CBr)n([O-])c2ccccc2[n+]1=O | 5.44 | 16.6 |
| COc1ccc(C2C(C#N)=C(N)OC3=C2COc2ccc(F)cc23)cc1OC (configuration not stated) | 19.4 | 60.4 |
| CCN(CC)CC(C)(C)C(=O)/C=C/c1ccc(Cl)c(Cl)c1 | 1.67 | 3.04 |
| NC1CCCC[C@H]1N.N[C@@H]1CCCC[C@@H]1N.O=C(P(=O)([O-])[O-])P(=O)([O-])[O-].[Pt+4].[Pt+4] | > 100 | > 100 |
| O=C(CSc1nnc(-c2ccccc2NC(=O)C(F)(F)F)c(=O)[nH]1)NC(=O)Nc1ccccc1 |  | > 100 |
| O=C1c2ccn(CCCCNC(CO)(CO)CO)c2C(=O)c2c1c(O)c1ccccc1c2O | 0.517 | 1.72 |
| CCOC(=O)c1[nH]c(COC(C)=O)c(CCCOC(C)=O)c1CCCOC(C)=O |  | > 100 |
| CCN1C(=O)N(CC)C2C1NC(=S)N2/N=C/C=C/c1cccs1 (configuration not stated) | > 47.5 | > 100 |
| COc1ccc(-c2cc(-c3cccn3C)c(C#N)c(N)n2)cc1OC | > 100 | > 100 |
| COc1ccc(C(=O)C(CO)Oc2ccccc2OC)cc1OC (configuration not stated) |  | > 100 |

Test system: SNB-75 CNS
Assay: NCI-60 cell line screen, 48 h

| Compound | TGI [µM] | GI50 [µM] |
| --- | --- | --- |
| COc1ccccc1/C=C/c1cnccn1 | > 10 |  |
| CC(C)(C)C(=O)/C=C/c1ccc(Oc2ccccc2)cc1 | 74.5 |  |
| CC1=C(C(=O)Nc2c(C)cccc2C)C(c2ccccc2Cl)C(C(=O)Nc2c(C)cccc2C)=C(C)N1 | > 100 |  |
| O=C1CSC(Cc2nc3ccccc3[nH]2)=N1 | 27.4 |  |
| COc1ccccc1NC(=O)C1=C(C)NC(C)=C(C(=O)Nc2ccccc2OC)C1c1ccc([N+](=O)[O-])cc1 | > 100 |  |
| CCOC(=O)[C@H](CCCNC(=O)OC(C)(C)C)NCc1ccc(OC)c(OC)c1 | > 100 |  |
| O=C(N/N=C\c1cc(Br)ccc1O)c1ccncc1 | 51.1 | 4.83 |
| O=C(/C=C/c1c(O)ccc2ccccc12)c1ccc2ccccc2c1 | > 100 |  |
| OCCCCC#Cc1ccccc1C#Cc1cccc(O)c1 | 38.1 | 16.1 |
| O=[N+]([O-])c1ccc(-n2nnc(C3=NCCCN3)c2-c2ccc(Cl)cc2)cc1 | > 100 |  |
| COC(=O)C12C3C4C5(C(=O)OC)C(C1C35C(=O)N(C(C)C)C(C)C)C42C(=O)N(C(C)C)C(C)C (configuration not stated) | > 50 |  |
| N#CC(C#N)=c1[nH]c2cccc3c2-c2c(cccc2c3=C(C#N)C#N)[nH]1 | > 100 |  |
| COC(=O)/C=C/C1C(C(=O)OC)C2(C(=O)OC)CCC1(C(=O)OC)N2 (configuration not stated) | > 100 |  |
| N#CC(/C(=N/NC(=O)C(=O)NN)C(=O)NC12CC3CC(CC(C3)C1)C2)c1ccccc1 (configuration not stated) | > 100 |  |
| CC(=O)OCC1OC([S-])C(OC(C)=O)C(OC(C)=O)C1OC(C)=O.CC[PH+](CC)CC.CC[PH+](CC)CC.[Au].[Au] (configuration not stated) | 1.16 | 0.249 |
| Cc1cc(C)n(CCNCCn2nc(C)cc2C)n1 | > 100 |  |
| COc1cc2c(cc1OCc1ccccc1)CNCC2 | > 100 |  |

| Compound | TGI [µM] | GI50 [µM] |
| --- | --- | --- |
| O=C(CN1CCCCC1)N1CCc2c([nH]c3ccccc23)C1c1cccnc1 (configuration not stated) | > 100 |  |
| COc1cc2c(cc1OC)C13CCN4CC5=CCOC6CC(=O)N2C1C6C5CC43O (configuration not stated) | > 100 |  |
| CCCCCCCCCc1cc(=O)c2c(O)cccc2o1 | > 10 |  |
| O=C(C[n+]1ccccc1)NNC(=O)/C(=C/c1ccc2c(c1)OCO2)NC(=O)c1ccccc1 | > 95.9 |  |
| O=S(O)CCCCSSCc1ccccc1CSSCCCCS(=O)O | > 100 |  |
| Clc1ccc(-c2c(C3=NCCN3)nnn2-c2ccc(Cl)cc2)cc1 | 48.3 |  |
| CC(C)(C)N1CC2(CCCCC2)C1=O | > 100 |  |
| O=C(CCC(=O)Nc1cccc(Cl)c1)CC(=O)c1ccc(Cl)cc1 | > 100 |  |
| CC(=O)Oc1ccccc1C(=O)N=C1[Se]CCCN1C(=O)c1ccccc1OC(C)=O | 4.69 | 2.01 |
| CC(=O)c1c(CBr)n([O-])c2ccccc2[n+]1=O | 29.6 | 14.7 |
| CCN(CC)CC(C)(C)C(=O)/C=C/c1ccc(Cl)c(Cl)c1 | 2.93 | 1.3 |
| NC1CCCC[C@H]1N.N[C@@H]1CCCC[C@@H]1N.O=C(P(=O)([O-])[O-])P(=O)([O-])[O-].[Pt+4].[Pt+4] | > 100 | > 100 |
| O=C(CSc1nnc(-c2ccccc2NC(=O)C(F)(F)F)c(=O)[nH]1)NC(=O)Nc1ccccc1 | 45 |  |
| O=C1c2ccn(CCCCNC(CO)(CO)CO)c2C(=O)c2c1c(O)c1ccccc1c2O | 47.2 | 11.9 |
| COc1ccc(-c2cc(-c3cccn3C)c(C#N)c(N)n2)cc1OC | 70.9 | 21.1 |
| COc1ccc(C(=O)C(CO)Oc2ccccc2OC)cc1OC (configuration not stated) | > 100 |  |

Test system: HS 578T breast
Assay: NCI-60 cell line screen, 48 h

| Compound | TGI [µM] | GI50 [µM] |
| --- | --- | --- |
| COc1ccccc1/C=C/c1cnccn1 | > 10 |  |
| CCCCCc1c(C)[nH]c(/C=C2\N=C(c3ccc[nH]3)C=C2CC)c1C | 0.129 | 0.014 |
| Cc1cn2c(/C=C3/C(=O)Nc4ccccc43)c(-c3ccc(Cl)cc3)nc2s1 | 31.9 | 9.26 |
| COC(COC(=O)N1CCN(C=O)CC1)C1=C(N2CC2)C(=O)C(C)=C(N2CC2)C1=O (configuration not stated) | 5.17 |  |
| O=C(N/N=C\c1cc(Br)ccc1O)c1ccncc1 | > 100 | 13.4 |
| OCCCCC#Cc1ccccc1C#Cc1cccc(O)c1 | 94.7 | 31.2 |
| O=C(O)c1cccc(OCCO)c1 | > 100 |  |
| COc1cc2c(cc1OC)C13CCN4CC5=CCOC6CC(=O)N2C1C6C5CC43O (configuration not stated) | > 100 |  |
| O=C(CCCN1CC=C(n2c(=O)[nH]c3ccccc32)CC1)c1ccc(F)cc1 | 99.8 | 24 |
| CC(=O)Oc1ccccc1C(=O)N=C1[Se]CCCN1C(=O)c1ccccc1OC(C)=O | 6.32 | 2.07 |
| CC(=O)c1c(CBr)n([O-])c2ccccc2[n+]1=O | 48.8 | 17.4 |
| COc1ccc(C2C(C#N)=C(N)OC3=C2COc2ccc(F)cc23)cc1OC (configuration not stated) | 81.7 | 35.6 |
| CCN(CC)CC(C)(C)C(=O)/C=C/c1ccc(Cl)c(Cl)c1 | 5.94 | 2.45 |
| O=C1c2ccn(CCCCNC(CO)(CO)CO)c2C(=O)c2c1c(O)c1ccccc1c2O | > 75 | 11.5 |
| CCN1C(=O)N(CC)C2C1NC(=S)N2/N=C/C=C/c1cccs1 (configuration not stated) |  | 0.281 |
| COc1ccc(-c2cc(-c3cccn3C)c(C#N)c(N)n2)cc1OC | > 100 | > 100 |

Test system: OVCAR-5 ovarian
Assay: NCI-60 cell line screen, 48 h

| Compound | TGI [µM] | GI50 [µM] |
| --- | --- | --- |
| COc1ccccc1/C=C/c1cnccn1 | > 10 |  |
| CCCCCc1c(C)[nH]c(/C=C2\N=C(c3ccc[nH]3)C=C2CC)c1C | 0.785 | 0.0179 |
| CC(C)(C)C(=O)/C=C/c1ccc(Oc2ccccc2)cc1 | 33.8 |  |
| CC1=C(C(=O)Nc2c(C)cccc2C)C(c2ccccc2Cl)C(C(=O)Nc2c(C)cccc2C)=C(C)N1 | > 100 |  |
| O=C1CSC(Cc2nc3ccccc3[nH]2)=N1 | 57.5 |  |
| COc1ccccc1NC(=O)C1=C(C)NC(C)=C(C(=O)Nc2ccccc2OC)C1c1ccc([N+](=O)[O-])cc1 | 90.8 |  |
| CCOC(=O)[C@H](CCCNC(=O)OC(C)(C)C)NCc1ccc(OC)c(OC)c1 | > 100 |  |
| COC(COC(=O)N1CCN(C=O)CC1)C1=C(N2CC2)C(=O)C(C)=C(N2CC2)C1=O (configuration not stated) | 8.64 |  |
| O=C(N/N=C\c1cc(Br)ccc1O)c1ccncc1 | > 100 | 3.76 |
| O=C(/C=C/c1c(O)ccc2ccccc12)c1ccc2ccccc2c1 | > 100 |  |
| OCCCCC#Cc1ccccc1C#Cc1cccc(O)c1 | 32.1 | 16.9 |
| O=C(O)c1cccc(OCCO)c1 | > 100 |  |
| O=[N+]([O-])c1ccc(-n2nnc(C3=NCCCN3)c2-c2ccc(Cl)cc2)cc1 | > 100 |  |
| COC(=O)C12C3C4C5(C(=O)OC)C(C1C35C(=O)N(C(C)C)C(C)C)C42C(=O)N(C(C)C)C(C)C (configuration not stated) | > 50 |  |
| N#CC(C#N)=c1[nH]c2cccc3c2-c2c(cccc2c3=C(C#N)C#N)[nH]1 | > 100 |  |
| COC(=O)/C=C/C1C(C(=O)OC)C2(C(=O)OC)CCC1(C(=O)OC)N2 (configuration not stated) | > 100 |  |
